In US20090203577A1 (EXELIXIS, INC., priority 2005, published 2009) one finds EC50 and Emax data, which are given here for 22 compounds.

In this test the target is T1, human farnesoid X receptor (Homo sapiens, UniProt Q96RI1).
T1 construct: CMX-farnesoid X receptor (full length human farnesoid X receptor); expressed in transfected cells; host or cells: CV-1 African Green Monkey Kidney cells
T1 sequence (Q96RI1 1-472 isoform Q96RI1-2): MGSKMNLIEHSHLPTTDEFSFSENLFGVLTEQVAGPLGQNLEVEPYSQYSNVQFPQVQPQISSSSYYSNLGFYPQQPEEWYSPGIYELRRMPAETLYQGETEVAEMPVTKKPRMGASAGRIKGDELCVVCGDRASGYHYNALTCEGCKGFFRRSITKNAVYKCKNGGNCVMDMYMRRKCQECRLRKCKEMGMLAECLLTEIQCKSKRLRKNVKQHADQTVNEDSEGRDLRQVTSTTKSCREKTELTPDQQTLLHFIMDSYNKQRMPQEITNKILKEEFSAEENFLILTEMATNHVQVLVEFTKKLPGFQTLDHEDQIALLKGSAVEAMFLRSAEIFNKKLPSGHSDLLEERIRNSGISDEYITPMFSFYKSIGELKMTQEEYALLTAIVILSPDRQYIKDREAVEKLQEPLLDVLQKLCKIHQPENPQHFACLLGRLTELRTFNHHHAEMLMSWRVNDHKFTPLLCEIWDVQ
T1 sequence (P19793 1-462 partner): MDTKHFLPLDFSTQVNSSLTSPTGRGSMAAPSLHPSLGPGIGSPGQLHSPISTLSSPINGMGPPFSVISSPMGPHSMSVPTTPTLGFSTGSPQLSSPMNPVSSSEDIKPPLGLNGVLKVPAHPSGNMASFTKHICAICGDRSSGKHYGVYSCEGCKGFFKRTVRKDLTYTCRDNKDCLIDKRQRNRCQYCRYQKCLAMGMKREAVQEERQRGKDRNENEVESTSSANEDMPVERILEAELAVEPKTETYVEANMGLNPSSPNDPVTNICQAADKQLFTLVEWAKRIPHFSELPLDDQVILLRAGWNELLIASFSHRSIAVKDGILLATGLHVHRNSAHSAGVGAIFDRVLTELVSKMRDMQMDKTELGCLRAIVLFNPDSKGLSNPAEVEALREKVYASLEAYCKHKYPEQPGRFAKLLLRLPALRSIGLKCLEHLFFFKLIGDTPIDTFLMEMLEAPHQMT
Briefly: FXR in vitro assays (farnesoid X receptor/ECREx7 co-transfection assay, TR-FRET assay), Table I. In kind it is cell-based. The conditions noted are these: for Emax: read-out: % Efficacy. In outline:
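CV-1 monkey kidney cells transfected for an FXR/ECREx7 luciferase co-transfection reporter; luciferase read 18-20 h later in lysates. 8-point dose-response at ½-log spacing, 4 wells per point; EC50/IC50 from four-parameter Hill fit, averaged over at least 3 independent experiments.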
A general note: TR-FRET usually uses a lanthanide donor and a delayed reading to cut background.

[1] abbreviates: agonist activity, one or more of the in vitro assays, read-out: EC50.

Where two headings read alike, the source gives them in different places.

In general, EC50 refers to the concentration that produces a half-maximal response.

Take `CC(C)OC(=O)C1=CN(C(=O)c2ccccc2Cl)CC(C)(C)c2c1[nH]c1ccccc21` [Example 66, 1-methylethyl 3-[(2-chlorophenyl)carbonyl]-1,1-dimethyl-1,2,3,6-tetrahydroazepino[4,5-b]indole-5-carboxylate]: the Emax is over 100%. In addition, the EC50 under setting [1] was in the range of 1 to 10 nM.
On to `CC(C)OC(=O)C1=CN(C(=O)c2c(F)cccc2F)CC(C)(C)c2c1[nH]c1ccccc21` [Example 75, 1-methylethyl 3-[(2,6-difluorophenyl)carbonyl]-1,1-dimethyl-1,2,3,6-tetrahydroazepino[4,5-b]indole-5-carboxylate], for which the Emax was over 100%. The EC50 under setting [1] was 1 to 10 nM.
The like results for `CC(C)OC(=O)C1=CN(C(=O)c2cccc(CN3CCCCCCC3)c2)CC(C)(C)c2c1[nH]c1ccccc21` [Example 176, 1-methylethyl 3-{[3-(azocan-1-ylmethyl)phenyl]carbonyl}-1,1-dimethyl-1,2,3,6-tetrahydroazepino[4,5-b]indole-5-carboxylate] were, in that order, over 100% and 100 to 1000 nM.
Turning to `CC1(C)CN(C(=O)c2ccc(F)c(F)c2)C=C(C(=O)NC(CO)CO)c2[nH]c3ccccc3c21` [Example 163, 3-[(3,4-difluorophenyl)carbonyl]-N-[2-hydroxy-1-(hydroxymethyl)ethyl]-1,1-dimethyl-1,2,3,6-tetrahydroazepino[4,5-b]indole-5-carboxamide], the Emax was over 100%. In addition, the concentration for a half-maximal effect (EC50) under setting [1] lay within 1000 to 10000 nM.
As to `CC(C)OC(=O)C1=CN(C(=O)N2CCN(C)CC2)CC(C)(C)c2c1[nH]c1ccc(F)cc21` [Example 32, 1-methylethyl 9-fluoro-1,1-dimethyl-3-[(4-methylpiperazin-1-yl)carbonyl]-1,2,3,6-tetrahydroazepino[4,5-b]indole-5-carboxylate], the Emax was over 100%. For the same compound, the EC50 under setting [1] lay in the range of 100 to 1000 nM.
Take `CC(C)OC(=O)C1=CN(C(=O)CCCN(C)C)CC(C)(C)c2c1[nH]c1ccccc21` [Example 20]: the EC50 under setting [1] fell in the range of 1000 to 10000 nM.
For `CC(C)OC(=O)C1=CN(C(=O)c2ccc(F)cc2Cl)CC(C)(C)c2c1[nH]c1ccccc21` [Example 111, 1-methylethyl 3-[(2-chloro-4-fluorophenyl)carbonyl]-1,1-dimethyl-1,2,3,6-tetrahydroazepino[4,5-b]indole-5-carboxylate], the Emax is over 100%. Moreover, under setting [1], the EC50 was in the range of 10 to 100 nM.
For `CCN(CC)CCOc1ccc2c3c([nH]c2c1)C(C(=O)OC(C)C)=CN(C(=O)c1ccc(F)c(F)c1)CC3(C)C` [Example 103, 1-methylethyl 8-{[2-(diethylamino)ethyl]oxy}-3-[(3,4-difluorophenyl)carbonyl]-1,1-dimethyl-1,2,3,6-tetrahydroazepino[4,5-b]indole-5-carboxylate], the Emax was under 40%. Further, the EC50 under setting [1] lay within 100 to 1000 nM.
`CC(C)OC(=O)C1=CN(C(=O)c2cccc(CN3CCN(C(=O)c4ccccc4)CC3)c2)CC(C)(C)c2c1[nH]c1ccccc21` [Example 175, 1-methylethyl 1,1-dimethyl-3-[(3-{[4-(phenylcarbonyl)piperazin-1-yl]methyl}phenyl)carbonyl]-1,2,3,6-tetrahydroazepino[4,5-b]indole-5-carboxylate]: the Emax was over 100%. Besides, the half-maximal effective concentration (EC50) under setting [1] lay within 100 to 1000 nM.
Consider `CC(C)OC(=O)C1=CN(C(=O)c2ccc3c(c2)OC(F)(F)O3)CC(C)(C)c2c1[nH]c1ccccc21` [Example 92, 1-methylethyl 3-[(2,2-difluoro-1,3-benzodioxol-5-yl)carbonyl]-1,1-dimethyl-1,2,3,6-tetrahydroazepino[4,5-b]indole-5-carboxylate], for which the Emax is over 100%. The concentration giving a half-maximal response (EC50) under setting [1] lay in the range of 100 to 1000 nM.
For the compound `CC(C)OC(=O)C1=CN(C(=O)c2ccc(C3CCNCC3)cc2)CC(C)(C)c2c1[nH]c1ccccc21` [Example 94, 1-methylethyl 1,1-dimethyl-3-[(4-piperidin-4-ylphenyl)carbonyl]-1,2,3,6-tetrahydroazepino[4,5-b]indole-5-carboxylate], the concentration for a half-maximal effect (EC50) under setting [1] was over 10000 nM.
With `Cc1cc(C(=O)N2C=C(C(=O)OC(C)C)c3[nH]c4ccccc4c3C(C)(C)C2)ccc1F` [Example 144, 1-methylethyl 3-[(4-fluoro-3-methylphenyl)carbonyl]-1,1-dimethyl-1,2,3,6-tetrahydroazepino[4,5-b]indole-5-carboxylate], the Emax is over 100%. For the same compound, the EC50 under setting [1] was in the range of 1 to 10 nM.
As to `CC(C)OC(=O)C1=CN(C(=O)N2CCCC(COCCCN(C)C)C2)CC(C)(C)c2c1[nH]c1ccccc21` (centres unmarked) [Example 55, 1-methylethyl 3-{[3-({[3-(dimethylamino)propyl]oxy}methyl)piperidin-1-yl]carbonyl}-1,1-dimethyl-1,2,3,6-tetrahydroazepino[4,5-b]indole-5-carboxylate], under setting [1], the EC50 lay in the range of 1000 to 10000 nM.
Consider `CC(C)OC(=O)C1=CN(C(=O)c2cccc(CN3CCCCCC3)c2)CC(C)(C)c2c1[nH]c1ccccc21` [Example 152, 1-methylethyl 3-{[3-(azepan-1-ylmethyl)phenyl]carbonyl}-1,1-dimethyl-1,2,3,6-tetrahydroazepino[4,5-b]indole-5-carboxylate], for which the Emax was over 100%. Under setting [1], the 50% effective concentration (EC50) fell in the range of 10 to 100 nM.
As to `CC(C)OC(=O)C1=CN(C(=O)c2cccc(CN3CCCN(C)CC3)c2)CC(C)(C)c2c1[nH]c1ccccc21` [Example 153, 1-methylethyl 1,1-dimethyl-3-({3-[(4-methyl-1,4-diazepan-1-yl)methyl]phenyl}carbonyl)-1,2,3,6-tetrahydroazepino[4,5-b]indole-5-carboxylate], the Emax was over 100%. Also, the EC50 under setting [1] is 1000 to 10000 nM.
The like results for `CC(C)OC(=O)C1=CN(C(=O)c2c(F)cc(F)cc2F)CC(C)(C)c2c1[nH]c1ccccc21` [Example 78, 1-methylethyl 1,1-dimethyl-3-[(2,4,6-trifluorophenyl)carbonyl]-1,2,3,6-tetrahydroazepino[4,5-b]indole-5-carboxylate] were, in that order, over 100% and 10 to 100 nM.
With `CC(C)OC(=O)C1=CN(C(=O)c2cc(F)c(Cl)cc2F)CC(C)(C)c2c1[nH]c1ccccc21` [Example 149, 1-methylethyl 3-[(4-chloro-2,5-difluorophenyl)carbonyl]-1,1-dimethyl-1,2,3,6-tetrahydroazepino[4,5- ]indole-5-carboxylate], the Emax was over 100%. Further, the EC50 under setting [1] was in the range of 10 to 100 nM.
Take `CC(C)OC(=O)C1=CN(C(=O)c2cccc(C(F)(F)F)c2F)CC(C)(C)c2c1[nH]c1ccccc21` [Example 133, 1-methylethyl 3-{[2-fluoro-3-(trifluoromethyl)phenyl]car-bonyl}-1,1-dimethyl-1,2,3,6-tetrahydroazepino[4,5-b]indole-5-carboxylate]: the Emax is over 100%. In addition, the concentration for a half-maximal effect (EC50) under setting [1] fell in the range of 10 to 100 nM.
With `CCN(CC)C(=O)N1C=C(C(=O)OC(C)C)c2[nH]c3ccccc3c2C(C)(C)C1` [Example 52, 1-methylethyl 3-[(diethylamino)carbonyl]-1,1-dimethyl-1,2,3,6-tetrahydroazepino[4,5-b]indole-5-carboxylate], the Emax is over 100%. Besides, the half-maximal effective concentration (EC50) under setting [1] lay in the range of 10 to 100 nM.
With `CC(C)OC(=O)C1=CN(C(=O)c2ccc(F)c(F)c2)CC(C)(C)c2c1[nH]c1cc(OC(=O)NCCN3CCCC3)ccc21` [Example 126, 1-methylethyl 3-[(3,4-difluorophenyl)carbonyl]-1,1-dimethyl-8-({[(2-pyrrolidin-1-ylethyl)amino]carbonyl}oxy)-1,2,3,6-tetrahydroazepino[4,5-b]indole-5-carboxylate], the concentration for a half-maximal effect (EC50) lay in the range of 10 to 100 nM and the Emax is over 100%.
Regarding `CC(C)OC(=O)C1=CN(C(=O)c2cccc(CCl)c2)CC(C)(C)c2c1[nH]c1ccccc21` [Example 113, 1-methylethyl 3-{[3-(chloromethyl)phenyl]car-bonyl}-1,1-dimethyl-1,2,3,6-tetrahydroazepino[4,5-b]indole-5-carboxylate], the Emax is over 100%. In addition, under setting [1], the 50% effective concentration (EC50) was 10 to 100 nM.
In the case of `CC(C)OC(=O)C1=CN(C(=O)c2cccc(C(F)(F)F)c2)CC(C)(C)c2c1[nH]c1ccccc21` [Example 128, 1-methylethyl 1,1-dimethyl-3-{[3-(trifluoromethyl)phenyl]car-bonyl}-1,2,3,6-tetrahydroazepino[4,5-b]indole-carboxylate], the Emax was over 100%. Further, under setting [1], the concentration for a half-maximal effect (EC50) was 10 to 100 nM.
